Legend:
[1] = test system: NCI-H2122; assay: relative IC50 of cell viability (CellTiter-Glo); higher = less potent
Protocol: (§1)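 CellTiter-Glo proliferation assay in KRAS G12C mutant NCI-H2122 (72 h), SW837 (144 h) and NCI-H358 cells in 384-well plates. Monotherapy dose response was fitted with a four-parameter curve after normalisation to DMSO controls (% of control, PoC). IC50 is the relative IC50, averaged over replicates. Bottom is the fitted lower plateau in %PoC; Max.Conc. is the top dose tested.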

[2] = test system: SW837; assay: as above
Protocol: as §1

[3] = test system: NCI-H2122; assay: fitted bottom plateau of viability curve, % of DMSO control; higher = less maximal inhibition; extreme values may be limits of the assay
Outline: (§2)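 The NCI-H2122, SW837 and NCI-H358 cell lines were plated in 384-well format at 800, 500 and 500 cells/well respectively, in 60 µl. After a 24 h wait, single compounds were applied in dose series by acoustic dispensing, and plates were incubated 72 h, or 144 h in the case of SW837. Readout was CellTiter-Glo luminescence on an EnVision reader following 15 min shaking, normalised to DMSO controls. Both the relative IC50 (a mean over replicates) and the lower plateau derive from a four-parameter nonlinear fit.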

[4] = test system: SW837; assay: as above
Outline: as §2

relative IC50 of cell viability [1] [nM]	relative IC50 of cell viability [2] [nM]	Compound	fitted bottom plateau of viability curve [3] [%]	fitted bottom plateau of viability curve [4] [%]
	1900	CO[C@H]1CC[C@H](n2c([C@@H]3CCCC(=O)N3c3ccc(F)c(F)c3)nc3cc(-c4c(C)noc4C)ccc32)CC1 [CCS1477] (top concentration tested 10000 nM)	77.8	36.9
210	30.6	N#CN=C(NCCCCCCOc1ccc(Cl)cc1)Nc1ccncc1 [GMX1778] (top concentration tested 9999.9 nM)	5.11	17.9
126		COc1ncc(-c2nc3c(n2C(C)C)[C@H](c2ccc(Cl)cc2)N(c2cc(Cl)cn(C)c2=O)C3=O)c(OC)n1 [HDM-201] (top concentration tested 9999.9 nM)	25.1	84.1
	7020	O=C(/C=C\n1cnc(-c2cc(C(F)(F)F)cc(C(F)(F)F)c2)n1)NNc1cnccn1 [KPT-330] (top concentration tested 50000 nM)	91.8	20.6
6690		COc1ccccc1-c1cc(Nc2cccc(CS(N)(=O)=O)c2)ncn1 [LDC-067] (top concentration tested 10000 nM)	47.3	87.9
200		Cc1ccc(NC(=O)c2ccnc(C(F)(F)F)c2)cc1-c1cc(OCCO)nc(N2CCOCC2)c1 [LXH-254] (top concentration tested 1000 nM)	63.6	94.2
1100		Cc1ncc(NC(=O)c2cccc(C(F)(F)F)c2)cc1-c1cnc(OC2CCOCC2)c(N2CCOCC2)c1 [RAF-709] (top concentration tested 10000 nM)	11.1	87.9
8590		COc1cc2c(NC3CCN(C(C)C)CC3)nc(C3CCCCC3)nc2cc1OCCCN1CCCC1 [UNC0638] (top concentration tested 10000 nM)	46.7	88.9
2140		CS(=O)(=O)c1ccc(-c2cnc(N)c(C(=O)Nc3ccccc3)n2)cc1 [VE-821] (top concentration tested 10000 nM)	34.2	82.4
8090		COc1cc2nccc(Oc3ccc(NC(=O)C4(C(=O)Nc5ccc(F)cc5)CC4)cc3)c2cc1OC [XL-184] (top concentration tested 9999.9 nM)	35.3	55.8

Continued, molecule first:

Compound	relative IC50 of cell viability [1] [nM]	relative IC50 of cell viability [2] [nM]	fitted bottom plateau of viability curve [3] [%]	fitted bottom plateau of viability curve [4] [%]
CCc1cnn2c(NCc3ccc[n+]([O-])c3)cc(N3CCCC[C@H]3CCO)nc12 (top concentration tested 1000 nM)	8.91	25.9	3.3	5.65
Cc1[nH]c(/C=C2\C(=O)Nc3ccc(S(=O)(=O)Cc4c(Cl)cccc4Cl)cc32)c(C)c1C(=O)N1CCC[C@@H]1CN1CCCC1 (top concentration tested 10000 nM)	3030	2390	0.553	1.78
NC(=O)c1cnc(N[C@@H]2CCCC[C@@H]2N)nc1Nc1cccc(-n2nccn2)c1 (top concentration tested 10000 nM)	3860	2110	39.3	30.9
COc1cc2cc(c1Cl)N(C)C(=O)C[C@H](OC(=O)C(C)C)[C@]1(C)O[C@@H]1[C@H](C)[C@@H]1C[C@@](O)(NC(=O)O1)[C@H](OC)/C=C/C=C(\C)C2 [Ansamitocin P3] (top concentration tested 99.976 nM)	0.0585	0.162	3.79	26.7
Nc1nc(Cl)nc2c1ncn2[C@@H]1O[C@H](CO)[C@@H](O)[C@@H]1F [Clofarabine] (top concentration tested 10000 nM)	322	1150	23.7	13.4
O=C(c1ccc(F)c(F)c1Nc1ccc(I)cc1F)N1CC(O)([C@@H]2CCCCN2)C1 [Cobimetinib] (top concentration tested 999.97 nM)	139	178	3.48	31.2
Nc1ccn([C@@H]2O[C@H](CO)[C@@H](O)[C@@H]2O)c(=O)n1 [Cytarabin] (top concentration tested 999.93 nM)	238	949	32.3	0
Nc1ncn([C@H]2C[C@H](O)[C@@H](CO)O2)c(=O)n1 [Decitabine] (top concentration tested 10000 nM)	1360		57.7	54
CC(=O)O[C@@]12CO[C@@H]1C[C@H](O)[C@@]1(C)C(=O)[C@H](O)C3=C(C)[C@@H](OC(=O)[C@H](O)[C@@H](NC(=O)OC(C)(C)C)c4ccccc4)C[C@@](O)([C@@H](OC(=O)c4ccccc4)[C@H]21)C3(C)C [Docetaxel] (top concentration tested 100.01 nM)	1.68	2.73	4.04	22.5
COc1cccc2c1C(=O)c1c(O)c3c(c(O)c1C2=O)C[C@@](O)(C(=O)CO)C[C@@H]3O[C@H]1C[C@H](N)[C@H](O)[C@H](C)O1 [Doxorubicin] (top concentration tested 1000 nM)	207	142	34.5	1.81
CN(NC(=O)CC(=O)NN(C)C(=S)c1ccccc1)C(=S)c1ccccc1 [Elesclomol] (top concentration tested 10000 nM)	22.7	39	1.27	2.84
COc1cc([C@@H]2c3cc4c(cc3[C@@H](O[C@@H]3O[C@@H]5CO[C@@H](C)O[C@H]5[C@H](O)[C@H]3O)[C@H]3COC(=O)[C@H]23)OCO4)cc(OC)c1O [Etoposide] (top concentration tested 10000 nM)	995	1340	51.5	14.5
CN1CC[C@H](c2c(O)cc(O)c3c(=O)cc(-c4ccccc4Cl)oc23)[C@H](O)C1 [Flavopiridol] (top concentration tested 500.11 nM)	149	331	3.96	0
O=c1[nH]cc(F)c(=O)[nH]1 [Fluorouracil (5-FU)] (top concentration tested 1000.2 nM)	945		64.6	96.6
CCOC(=O)CCNc1cc(N2CCc3ccccc3CC2)nc(-c2ccccn2)n1 [GSK-J4] (top concentration tested 50000 nM)	64800	12300	61.7	28.7
CC(C)c1cc(-c2n[nH]c(=O)n2-c2ccc3c(ccn3C)c2)c(O)cc1O [Ganetespib] (top concentration tested 99.888 nM)	11.2	87.1	8.33	0
Nc1ccn([C@@H]2O[C@H](CO)[C@@H](O)C2(F)F)c(=O)n1 [Gemcitabine] (top concentration tested 99.925 nM)	7.62	12.3	28.4	18
CC(C)NC[C@@H](C(=O)N1CCN(c2ncnc3c2[C@H](C)C[C@H]3O)CC1)c1ccc(Cl)cc1 [Ipatasertib] (top concentration tested 10000 nM)	642		57.9	85.8
N[C@@H](Cc1ccc(N(CCCl)CCCl)cc1)C(=O)O [Melphalan] (top concentration tested 10000 nM)	2140		46.6	52.1
CCc1cccc(CC)c1NC(=O)c1nn(C)c2c1CCc1cnc(Nc3ccc(C(=O)NC4CCN(C)CC4)cc3OC(F)(F)F)nc1-2 [NMS-P715] (top concentration tested 10000 nM)	3960		48.7	58.9
O=c1cc(N2CCOCC2)oc2c(-c3cccc4c3sc3ccccc34)cccc12 [NU-7441] (top concentration tested 10000 nM)	3430		42.8	70.7
Cc1cn(-c2cc(NC(=O)c3ccc(C)c(Nc4nccc(-c5cccnc5)n4)c3)cc(C(F)(F)F)c2)cn1 [Nilotinib] (top concentration tested 10000 nM)	2510		14	68.8
Nc1nc2[nH]cc(CCc3ccc(C(=O)N[C@@H](CCC(=O)O)C(=O)O)cc3)c2c(=O)[nH]1 [Pemetrexed] (top concentration tested 10000 nM)	21.4		43.3	90.7
COc1cc(OC)c(/C=C/S(=O)(=O)Cc2ccc(OC)c(NCC(=O)O)c2)c(OC)c1 [Rigosertib] (top concentration tested 1000.1 nM)	123		5.86	58.2
CCN(CC)CCNC(=O)c1c(C)[nH]c(/C=C2\C(=O)Nc3ccc(F)cc32)c1C [Sunitinib] (top concentration tested 9999.9 nM)	4650		31.4	59.9
CC(C)C[C@@H](C(=O)N[C@H](C(=O)OC1CCCC1)c1ccccc1)[C@H](O)C(=O)NO [Tosedostat] (top concentration tested 9999.9 nM)	776		51.2	92.2
O=C(CCCCCCC(=O)Nc1ccccc1)NO [Vorinostat] (top concentration tested 10000 nM)	2440		10.7	25

Source: the supplement of paper PMC11424490
